We go through six molecules from patent publication US11661434B2, “Phosphate of platinum compound and preparation method therefor” (Beijing Showby Pharmaceutical Co., LTD., priority 2018, dated 2023).

A short description of data set [1]: hygroscopicity experiments of various salts. The class given is physicochemical. To be noted: 25° C. ± 1° C.
For data set [2] the following is noted: known platinum drugs; cited from earlier work.
The nature of data set [3]: pH value of compound, salts and lyophilized preparations. The class given is physicochemical. The conditions noted are these: compound or its salts. The method, then: The solution was stirred for 10 min, and then stood for adsorption for 20 min, followed by filtering with a 0.22 μm microfiltration membrane, and then was placed into 2 ml vials. Each vial was filled with 1 ml of the solution, which was then lyophilized to obtain the product at the specification of 20 mg/vial. The product was a white loose block, with a pH value of 4.10.
100) ml of water for injection was added at a low temperature (2-8° C.) to dissolve the compound, and 2.0 g of activated carbon for medicinal use was added. The solution was stirred for 10 min, and then stood for adsorption for 20 min, followed by filtering with a 0.22 μm microfiltration membrane, and then was placed into 2 ml vials. Each vial was filled with 1 ml of the solution, which was then lyophilized to obtain the product at the specification of 100 mg/vial.
100 ml of sodium dihydrogen phosphate-disodium hydrogen phosphate buffer (pH of 6.0) was added at a low temperature (2-8° C.) to dissolve the compound, and 0.5 g of activated carbon for medicinal use was added. The solution was stirred for 10 min, and then stood for adsorption for 20 min, followed by filtering with a 0.22 μm microfiltration membrane, and then was placed into 2 ml vials. Each vial was filled with 1 ml of the solution, which was then lyophilized to obtain the product at the specification of 200 mg/vial.

The mark [4] stands for this setting: relative humidity 44% ± 2%, 1 h.
Where [5] appears, read: relative humidity 44% ± 2%, 24 h.
Where [6] appears, read: relative humidity 69% ± 2%, 1 h.
Where [7] appears, read: relative humidity 69% ± 2%, 24 h.

By solubility is commonly meant the dissolved amount per volume that the medium holds.

On to `CCN(CC)CCCCC1C(=O)[O][Pt]2([NH][C@@H]3CCCC[C@H]3[NH]2)[O]C1=O.Cc1ccc(S(=O)(=O)O)cc1` (stereo partly drawn) [Tosylate salt, 2-(4-diethylamino)butylmalonato-(1R,2R)-(−)-1,2-cyclohexanediamine platinum(II) tosylate], for which the Hygroscopicity is reported as 4.56% in data set [1] (setting [4]), 8.78% in data set [1] (setting [5]), 5.30% in data set [1] (setting [6]) and 9.86% in data set [1] (setting [7]). Further, the Status entry is “Viscous” in data set [1] (setting [4]), “Light” in data set [1] (setting [5]), “Viscous” in data set [1] (setting [6]) and “Light” in data set [1] (setting [7]).

For the molecule `CCN(CC)CCCCC1C(=O)[O][Pt]2([NH][C@@H]3CCCC[C@H]3[NH]2)[O]C1=O.CS(=O)(=O)O` (stereo partly drawn) [Mesylate salt, 2-(4-diethylamino)butylmalonato-(1R,2R)-(−)-1,2-cyclohexanediamine platinum(II) mesylate], the Hygroscopicity in data set [1] (setting [4]) amounted to 4.98%; in data set [1] (setting [5]) it was 9.89%; in data set [1] (setting [6]), 6.37%; in data set [1] (setting [7]), 13.89%. Moreover, the Status result is “Viscous” in data set [1] (setting [4]), “Light gray” in data set [1] (setting [5]), “Viscous” in data set [1] (setting [6]) and “Light gray” in data set [1] (setting [7]).

Take `CCN(CC)CCCCC1C(=O)[O][Pt]2([NH][C@@H]3CCCC[C@H]3[NH]2)[O]C1=O.O=C(O)/C=C/C(=O)O` (stereo partly shown) [Fumarate salt]: the Hygroscopicity in data set [1] (setting [4]) was 5.87%; in data set [1] (setting [5]) it was 10.83%; in data set [1] (setting [6]), 6.83%; in data set [1] (setting [7]) it was 13.90%. The Status entry was “Viscous” in data set [1] (setting [4]), “Semi-” in data set [1] (setting [5]), “Viscous” in data set [1] (setting [6]) and “Semi-” in data set [1] (setting [7]).

For the molecule `N.N.O=C([O-])C1(C(=O)[O-])CCC1.[Pt+2]` [carboplatin], the solubility in data set [2] is 17.8 mg/mL.

As for `CCN(CC)CCCCC1C(=O)[O][Pt]2([NH][C@@H]3CCCC[C@H]3[NH]2)[O]C1=O.O=C(O)[C@H](O)[C@@H](O)C(=O)O` (stereo partly drawn) [L(+) tartrate salt, 2-(4-diethylamino)butylmalonato-(1R,2R)-(−)-1,2-cyclohexanediamine platinum(II) L-(+) tartrate], the Hygroscopicity in data set [1] (setting [4]) is 4.88%; in data set [1] (setting [5]) it was 9.76%; in data set [1] (setting [6]), 5.78%; in data set [1] (setting [7]), 12.79%. Besides, the Status result was “Viscous” in data set [1] (setting [4]), “Light gray” in data set [1] (setting [5]), “Viscous” in data set [1] (setting [6]) and “Light” in data set [1] (setting [7]).

For `CCN(CC)CCCCC1C(=O)[O][Pt][O]C1=O.N[C@@H]1CCCC[C@H]1N` [Example 1, (4-diethylamino)butylmalonato-(1R,2R)-(−)-1,2-cyclohexanediamine platinum(II)], the pH value result in data set [3] is “greater than 10”.
